Source: patent US20140294956A1, “GASTRIC RETENTIVE EXTENDED RELEASE PHARMACEUTICAL COMPOSITIONS” (MALLINCKRODT LLC, priority 2011, published 2014)

Assay: Ethanol release testing at 100 rpm paddle speed (Example 32)
Format: physicochemical

CC(=O)Nc1ccc(O)cc1 [APAP]
Percent Release, Mean (0% Ethanol, 15 min): 52.2% | Percent Release, Mean (0% Ethanol, 30 min): 54.6% | Percent Release, Mean (0% Ethanol, 45 min): 56.8% | Percent Release, Mean (0% Ethanol, 60 min): 58.8% | Percent Release, Mean (0% Ethanol, 75 min): 60.8% | Percent Release, Mean (0% Ethanol, 90 min): 62.6% | Percent Release, Mean (0% Ethanol, 120 min): 66.0% | Percent Release, Mean (0% Ethanol, 240 min): 78.6% | Percent Release, Mean (0% Ethanol, 480 min): 95.5% | Percent Release, Mean (5% Ethanol, 15 min): 52.6% | Percent Release, Mean (5% Ethanol, 30 min): 55.1% | Percent Release, Mean (5% Ethanol, 45 min): 57.1% | Percent Release, Mean (5% Ethanol, 60 min): 58.9% | Percent Release, Mean (5% Ethanol, 75 min): 60.7% | Percent Release, Mean (5% Ethanol, 90 min): 62.3% | Percent Release, Mean (5% Ethanol, 120 min): 65.5% | Percent Release, Mean (5% Ethanol, 240 min): 77.2% | Percent Release, Mean (5% Ethanol, 480 min): 94.4% | Percent Release, Mean (10% Ethanol, 15 min): 51.7% | Percent Release, Mean (10% Ethanol, 30 min): 54.1% | Percent Release, Mean (10% Ethanol, 45 min): 56.0% | Percent Release, Mean (10% Ethanol, 60 min): 57.8% | Percent Release, Mean (10% Ethanol, 75 min): 59.5% | Percent Release, Mean (10% Ethanol, 90 min): 61.1% | Percent Release, Mean (10% Ethanol, 120 min): 64.1% | Percent Release, Mean (10% Ethanol, 240 min): 75.5% | Percent Release, Mean (10% Ethanol, 480 min): 93.5% | Percent Release, Mean (20% Ethanol, 15 min): 50.2% | Percent Release, Mean (20% Ethanol, 30 min): 53.4% | Percent Release, Mean (20% Ethanol, 45 min): 55.5% | Percent Release, Mean (20% Ethanol, 60 min): 57.3% | Percent Release, Mean (20% Ethanol, 75 min): 59.0% | Percent Release, Mean (20% Ethanol, 90 min): 60.5% | Percent Release, Mean (20% Ethanol, 120 min): 63.3% | Percent Release, Mean (20% Ethanol, 240 min): 76.0% | Percent Release, Mean (20% Ethanol, 480 min): 91.9% | Percent Release, Mean (40% Ethanol, 15 min): 16.7% | Percent Release, Mean (40% Ethanol, 30 min): 30.4% | Percent Release, Mean (40% Ethanol, 45 min): 38.5% | Percent Release, Mean (40% Ethanol, 60 min): 43.1% | Percent Release, Mean (40% Ethanol, 75 min): 46.1% | Percent Release, Mean (40% Ethanol, 90 min): 48.3% | Percent Release, Mean (40% Ethanol, 120 min): 51.1% | Percent Release, Mean (40% Ethanol, 240 min): 60.8% | Percent Release, Mean (40% Ethanol, 480 min): 77.2%
